{"source": "patent US20250289827A1", "about": "“MORPHIC FORMS OF A MUTANT BRAF DEGRADER AND METHODS OF MANUFACTURE THEREOF” (C4 THERAPEUTICS, INC., priority 2022, published 2025)", "key": {"[1]": {"experiment": "Approximate solubility at 25° C. and 50° C. (visual)", "assay_type": "physicochemical", "protocol": "About 5 mg of Compound 1 Form A was weighed to a 2 mL glass vial. 20 μL aliquots of each solvent were added to dissolve the drug substance at 25° C. About 10 mg of Compound 1 Form A was weighed to a 2 mL glass vial. 20 μL aliquots of each solvent were added to dissolve the drug substance at 50° C. Vortex and sonication were applied to assist dissolution. Maximum volume of each solvent added was 1 mL. Approximate solubility was determined by visual observation.\nAbout 5 mg of Compound 1 Form B was weighed to a 2 mL glass vial. 20 μL aliquots of each solvent were added to dissolve the drug substance at 25° C. About 10 mg of Compound 1 Form B was weighed to a 2 mL glass vial. […] aliquots of each solvent were added to dissolve the drug substance at 50° C. Vortex and sonication were applied to assist dissolution. Maximum volume of each solvent added is 1 mL. Approximate solubility was determined by visual observation."}, "[2]": {"system": "A2058 human melanoma xenografts", "experiment": "Efficacy and body weight in A2058 xenografts (Example 39)", "assay_type": "in vivo", "protocol": "Compound 1, encorafenib and dabrafenib were administered to BALB/c nude mice bearing A2058 xenografts orally for 28 days. Compound 1 was dosed twice per day (BID) and dosed at 10 mg/kg from day 0. Encorafenib and dabrafenib were dosed daily (QD) from day 1. Encorafenib was dosed at 35 mg/kg. Dabrafenib was dosed at 100 mg/kg.\nEach mouse was inoculated subcutaneously at the right flank with A2058 cells (5×106) in 0.2 mL of PBS supplemented with Matrigel (PBS:Matrigel=1:1) for tumor development. Animals were grouped for efficacy study when the average tumor volume reached 130 mm^3 on day 7 after tumor inoculation and 412 mm^3 for PKPD study on day 14.\nAt the time of routine monitoring, the animals were checked daily for any effects of tumor growth and treatments on normal behavior such as mobility, food and water consumption (by looking only), body weight gain/loss (body weights were measured twice weekly), eye/hair matting and any other abnormal effect as stated in the protocol. Death and observed clinical signs were recorded on the basis of the numbers of animals within each subset.\nPrior to the onset of drug treatment, mice were measured for tumor size in two dimensions using a caliper, and the tumor volume (mm^3) was calculated using formula V=0.5 a×b^2 where a and b are the long and short diameters of the tumor in mm, respectively. Mice were randomized into different treatment groups based on the tumor volume.\nThe major endpoint was to see if the tumor growth could be delayed or mice could be cured. The tumor size was then used for calculations of T/C value. The T/C value (in percent) is an indication of antitumor effectiveness; T and C are the mean volumes of the treated and control groups, respectively on specified day.\nTumor growth inhibition (TGI) was calculated for each group using the formula: TGI (%) 20=[1−(Ti−T0)/(Ci−C0)]×100; Ti is the average tumor volume of a treatment group on a given day, TO is the average tumor volume of the treatment group on the day of treatment start, Ci is the average tumor volume of the vehicle control group on the same day with Ti, and C0 is the average tumor volume of the vehicle group on the day of treatment start.\nA one-way ANOVA followed by Dunnett's multiple comparison test was performed to compare tumor volume among vehicle group and treatment groups. All data were analyzed using GraphPad Prism, * indicates p<0.01, **** indicates p<0.0001 and ns indicates p>0.05."}, "[3]": {"system": "BRAF V600E mutant A375-luciferase intracranial model", "experiment": "Efficacy in A375-luciferase intracranial model", "conditions": "35 mg/kg PO QD; vehicle median survival 18 days", "procedure": "For the efficacy study, agents were tested in A375 human melanoma cancer cell derived xenografts (CDX). […] The A375 tumor cells were maintained in vitro in DMEM medium supplemented with 10% fetal bovine serum and 1% Penicillin-Streptomycin at 37° C. in an atmosphere of 5% CO2 in air. The tumor cells were routinely subcultured twice weekly. The cells growing in an exponential growth phase were harvested and counted for tumor inoculation.\nFor this CNS study, A375 cells with a luciferase tag for tracking tumor cell signal, were injected intracranially into 6-8 week old female BALB/c nude mice. […] The mice were anaesthetized, restrained, and sterilized prior to surgery. […] A 2 mm hole was created to the right of the anterior fontanel and 0.5 mm above the coronal on the skull with a cranial drill. Cell suspensions in 20% Matrigel were mixed and aspirated into the injector carefully to avoid bubbles and wiped to avoid extracranial tumorigenesis. The needle was inserted vertically into the cranial hole and the cell mixture was slowly injected for two minutes and held for another minute to decrease the drainage of the cell suspension. The wound was closed, and a subcutaneous injection of 5 mg/kg Meloxicam was given to relieve the pain and continued for three days. The mice were monitored closely until they woke up after the surgery. After inoculation, the animals were checked daily for morbidity and mortality.\nThe administration of the test agents began three days after inoculation. […] Measurements for the presence of the A375 luciferase signal within the CNS were done with IVIS Lumina III machine. Images were collected twice weekly to follow the growth of the models. The tumor-bearing mice were weighed and intraperitoneally administered luciferin (Perkin Elmer Inc-122799) at a dosage of 150 mg/kg. After ten minutes, mice were pre-anesthetized with the mixture gas of oxygen and isoflurane. The bioluminescence value at fifteen minutes post luciferin injection was recorded as the final value and plotted. The endpoint for individual mice was reached when the mouse body weight decreased by 20% when compared to their starting weight.\nThe luciferase signal for the mice removed from study were not carried forward, so a sudden drop in luciferase signal over time is due to mice with a heavy tumor burden being terminated and their high luciferase signal not being carried forward."}, "[4]": {"conditions": "PG-D24, Compound 1 10 mg/kg BID, encorafenib 35 mg/kg QD, dabrafenib 100 mg/kg QD"}}, "data": [{"smiles": "CCN(C)S(=O)(=O)Nc1ccc(F)c(Oc2ccc3ncn([C@H]4COC5(CCN(C(=O)CC6(O)CCN(c7cc8c(cc7F)c(N7CCC(=O)NC7=O)nn8C)CC6)CC5)C4)c(=O)c3c2)c1C#N", "note": "[Compound 1 Form B]", "values": [{"measurement": "solubility", "setting": "[1]; 1,4-Dioxane, 25° C., listed as Form B", "value": "20~25 mg/mL"}, {"measurement": "solubility", "setting": "[1]; 1,4-Dioxane, 50° C., listed as Form B", "value": "28~40 mg/mL"}, {"measurement": "solubility", "setting": "[1]; 2-MeTHF, 25° C.", "value": "<5", "unit": "mg/mL"}, {"measurement": "solubility", "setting": "[1]; 2-MeTHF, 50° C.", "value": "<5", "unit": "mg/mL"}, {"measurement": "solubility", "setting": "[1]; Acetone, 25° C., listed as Form B", "value": "<5", "unit": "mg/mL"}, {"measurement": "solubility", "setting": "[1]; Acetone, 50° C., listed as Form B", "value": "<5", "unit": "mg/mL"}, {"measurement": "solubility", "setting": "[1]; Acetonitrile, 25° C., listed as Form B", "value": "<5", "unit": "mg/mL"}, {"measurement": "solubility", "setting": "[1]; Acetonitrile, 50° C., listed as Form B", "value": "<5", "unit": "mg/mL"}, {"measurement": "solubility", "setting": "[1]; DCM, 25° C., listed as Form B", "value": "83~125 mg/mL"}, {"measurement": "solubility", "setting": "[1]; DMSO, 25° C.", "value": "at least 250 mg/mL"}, {"measurement": "solubility", "setting": "[1]; DMSO, 25° C., listed as Form B", "value": ">250", "unit": "mg/mL"}, {"measurement": "solubility", "setting": "[1]; Ethanol, 50° C.", "value": "<5", "unit": "mg/mL"}, {"measurement": "solubility", "setting": "[1]; Heptane, 50° C.", "value": "<5", "unit": "mg/mL"}, {"measurement": "solubility", "setting": "[1]; Isopropanol, 50° C.", "value": "<5", "unit": "mg/mL"}, {"measurement": "solubility", "setting": "[1]; MTBE, 50° C.", "value": "<5", "unit": "mg/mL"}, {"measurement": "solubility", "setting": "[1]; Methanol, 25° C.", "value": "<5", "unit": "mg/mL"}, {"measurement": "solubility", "setting": "[1]; Methanol, 50° C.", "value": "<5", "unit": "mg/mL"}, {"measurement": "solubility", "setting": "[1]; THF, 25° C., listed as Form B", "value": "10~13 mg/mL"}, {"measurement": "solubility", "setting": "[1]; THF, 50° C., listed as Form B", "value": "16~20 mg/mL"}, {"measurement": "solubility", "setting": "[1]; Toluene, 50° C.", "value": "<5", "unit": "mg/mL"}, {"measurement": "solubility", "setting": "[1]; Water, 50° C.", "value": "<5", "unit": "mg/mL"}]}, {"smiles": "COC(=O)N[C@@H](C)CNc1nccc(-c2cn(C(C)C)nc2-c2cc(Cl)cc(NS(C)(=O)=O)c2F)n1", "note": "[encorafenib]", "values": [{"measurement": "T/C", "setting": "[2]; [4]", "value": 77.22, "unit": "%"}, {"measurement": "TGI", "setting": "[2]; [4]", "value": 24.04, "unit": "%"}, {"measurement": "TV (mean tumor volume)", "setting": "[2]; [4]", "value": 1944, "unit": "mm^3"}, {"measurement": "TGI", "setting": "[2]; PG-D24, Compound 1 10 mg/kg p.o. BID, Encorafenib 35 mg/kg p.o. QD, Dabrafenib 100 mg/kg p.o. QD", "value": 24.04, "unit": "%"}, {"measurement": "Tumor Size on PG-D24", "setting": "[2]; PG-D24, Mean ± SEM, Compound 1 10 mg/kg p.o. BID, Encorafenib 35 mg/kg p.o. QD, Dabrafenib 100 mg/kg p.o. QD", "value": "1944 ± 160", "unit": "mm^3"}, {"measurement": "Antitumor activity compared with vehicle group", "setting": "[2]; PG-D24, one-way ANOVA, Dunnett", "value": "no significant antitumor activity"}, {"measurement": "T/C", "setting": "[2]; PG-D24, treated / control average tumor volume, Compound 1 10 mg/kg p.o. BID, Encorafenib 35 mg/kg p.o. QD, Dabrafenib 100 mg/kg p.o. QD", "value": 77.22, "unit": "%"}, {"measurement": "TGI", "setting": "[2]; PG-D28, Compound 1 10 mg/kg p.o. BID, Encorafenib 35 mg/kg p.o. QD, Dabrafenib 100 mg/kg p.o. QD", "value": 19.37, "unit": "%"}, {"measurement": "Tumor Size on PG-D28", "setting": "[2]; PG-D28, Mean ± SEM, Compound 1 10 mg/kg p.o. BID, Encorafenib 35 mg/kg p.o. QD, Dabrafenib 100 mg/kg p.o. QD", "value": "2354 ± 201", "unit": "mm^3"}, {"measurement": "T/C", "setting": "[2]; PG-D28, treated / control average tumor volume, Compound 1 10 mg/kg p.o. BID, Encorafenib 35 mg/kg p.o. QD, Dabrafenib 100 mg/kg p.o. QD", "value": 81.52, "unit": "%"}, {"measurement": "Tumor Volume Trace over Time", "setting": "[2]; day 0 (baseline), Mean ± SEM, Compound 1 10 mg/kg p.o. BID × 28 days, Encorafenib 35 mg/kg p.o. QD × 28 days, Dabrafenib 100 mg/kg p.o. QD × 28 days", "value": "130 ± 4", "unit": "mm^3"}, {"measurement": "Tumor Volume Trace over Time", "setting": "[2]; day 3, Mean ± SEM, Compound 1 10 mg/kg p.o. BID, Encorafenib 35 mg/kg p.o. QD, Dabrafenib 100 mg/kg p.o. QD", "value": "189 ± 9", "unit": "mm^3"}, {"measurement": "Tumor Volume Trace over Time", "setting": "[2]; day 7, Mean ± SEM, Compound 1 10 mg/kg p.o. BID, Encorafenib 35 mg/kg p.o. QD, Dabrafenib 100 mg/kg p.o. QD", "value": "302 ± 23", "unit": "mm^3"}, {"measurement": "Tumor Volume Trace over Time", "setting": "[2]; day 10, Mean ± SEM, Compound 1 10 mg/kg p.o. BID, Encorafenib 35 mg/kg p.o. QD, Dabrafenib 100 mg/kg p.o. QD", "value": "477 ± 45", "unit": "mm^3"}, {"measurement": "Tumor Volume Trace over Time", "setting": "[2]; day 14, Mean ± SEM, Compound 1 10 mg/kg p.o. BID, Encorafenib 35 mg/kg p.o. QD, Dabrafenib 100 mg/kg p.o. QD", "value": "756 ± 64", "unit": "mm^3"}, {"measurement": "Tumor Volume Trace over Time", "setting": "[2]; day 17, Mean ± SEM, Compound 1 10 mg/kg p.o. BID, Encorafenib 35 mg/kg p.o. QD, Dabrafenib 100 mg/kg p.o. QD", "value": "1122 ± 120", "unit": "mm^3"}, {"measurement": "Tumor Volume Trace over Time", "setting": "[2]; day 21, Mean ± SEM, Compound 1 10 mg/kg p.o. BID, Encorafenib 35 mg/kg p.o. QD, Dabrafenib 100 mg/kg p.o. QD", "value": "1472 ± 142", "unit": "mm^3"}, {"measurement": "Tumor Volume Trace over Time", "setting": "[2]; day 24, Mean ± SEM, Compound 1 10 mg/kg p.o. BID, Encorafenib 35 mg/kg p.o. QD, Dabrafenib 100 mg/kg p.o. QD", "value": "1944 ± 160", "unit": "mm^3"}, {"measurement": "Tumor Volume Trace over Time", "setting": "[2]; day 28, Mean ± SEM, Compound 1 10 mg/kg p.o. BID, Encorafenib 35 mg/kg p.o. QD, Dabrafenib 100 mg/kg p.o. QD", "value": "2354 ± 201", "unit": "mm^3"}, {"measurement": "Survival (average)", "setting": "[3]", "value": 46, "unit": "days"}]}]}
